Structures are written as SMILES.

Among the data in ChEMBL document CHEMBL3352797, “Design of granulatimide and isogranulatimide analogues as potential Chk1 inhibitors: Study of amino-platforms for their synthesis” (Bioorg Med Chem, 2014) are IC50 values, retold here.

This test concerns the target T1, Serine/threonine-protein kinase Chk1 (Homo sapiens, UniProt O14757).
T1 sequence (O14757 whole entry): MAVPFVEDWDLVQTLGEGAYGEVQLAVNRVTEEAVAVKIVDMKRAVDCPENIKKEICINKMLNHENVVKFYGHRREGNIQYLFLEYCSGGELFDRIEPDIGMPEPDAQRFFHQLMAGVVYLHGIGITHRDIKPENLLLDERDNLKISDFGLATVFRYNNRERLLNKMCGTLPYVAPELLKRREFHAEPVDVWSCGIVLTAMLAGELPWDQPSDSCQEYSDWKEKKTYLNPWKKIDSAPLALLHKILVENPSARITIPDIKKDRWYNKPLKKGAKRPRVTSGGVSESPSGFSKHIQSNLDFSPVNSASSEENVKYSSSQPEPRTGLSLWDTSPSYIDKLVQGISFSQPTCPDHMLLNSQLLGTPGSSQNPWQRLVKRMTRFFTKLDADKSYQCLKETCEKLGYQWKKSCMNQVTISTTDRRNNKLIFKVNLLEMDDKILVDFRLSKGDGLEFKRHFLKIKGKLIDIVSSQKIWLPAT
Put plainly: Inhibition of Chk1 (unknown origin).

For the compound `O=C1NC(=O)c2c1c1[nH]cnc1c1[nH]c3ccccc3c21` [GRANULATIMIDE], it took 250 nM to reach half-maximal inhibition (IC50). This lies in the sub-micromolar range.
